# In US8278066B2, “Truncated somatostatin receptors” (Board of Regents, The University of Texas System, priority 2001, dated 2012):
# Legend:
# [1] = target: full length SSTR2A fusion protein (HT1080 clones 21, 3, 11) (Homo sapiens, UniProt P30874)
# [2] = target: intracellular tail minus SSTR2A fusion protein (HT1080 clones tail-1, tail-4) (Homo sapiens, UniProt P30874)
# Chain of intracellular tail minus SSTR2A fusion protein (HT1080 clones tail-1, tail-4) (P30874 1-314): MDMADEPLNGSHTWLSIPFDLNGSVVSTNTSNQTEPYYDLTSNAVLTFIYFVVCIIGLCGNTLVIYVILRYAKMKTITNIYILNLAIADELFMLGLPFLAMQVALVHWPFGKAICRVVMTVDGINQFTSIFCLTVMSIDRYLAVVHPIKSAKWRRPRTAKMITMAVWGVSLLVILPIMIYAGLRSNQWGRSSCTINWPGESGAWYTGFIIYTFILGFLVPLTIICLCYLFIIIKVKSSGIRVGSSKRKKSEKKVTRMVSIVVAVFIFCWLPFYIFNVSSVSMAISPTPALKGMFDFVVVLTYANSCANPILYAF
# Chain of full length SSTR2A fusion protein (HT1080 clones 21, 3, 11) (P30874 whole entry, the tested form may be a part): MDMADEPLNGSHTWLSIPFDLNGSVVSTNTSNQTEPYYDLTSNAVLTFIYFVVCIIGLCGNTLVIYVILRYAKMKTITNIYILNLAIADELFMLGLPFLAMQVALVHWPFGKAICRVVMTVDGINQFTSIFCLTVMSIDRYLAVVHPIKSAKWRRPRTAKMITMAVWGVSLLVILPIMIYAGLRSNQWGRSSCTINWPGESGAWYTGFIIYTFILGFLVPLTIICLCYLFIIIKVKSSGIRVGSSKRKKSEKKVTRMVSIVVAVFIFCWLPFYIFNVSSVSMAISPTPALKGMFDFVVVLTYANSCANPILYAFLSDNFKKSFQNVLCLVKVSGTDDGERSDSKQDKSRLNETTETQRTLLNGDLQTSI
substance,measurement,setting,value
^111In-octreotide,"Specific binding, order among clones",[1],greater for clone 21 than 3 than 11
same,counts per minute bound,[1],more counts per minute without the addition of cold somastotin-28 then with its addition
same,counts per minute bound,[2],more counts per minute without the addition of cold somastotin-28 then with its addition
